ChEMBL document CHEMBL5154725, “SAR evolution towards potent C-terminal carboxamide peptide inhibitors of Zika virus NS2B-NS3 protease” (Bioorg Med Chem, 2022)
The source made the active and inactive calls. No cut-off for these calls is given here. Non-standard residues stand in square brackets, D forms with d. Residues, ends and D or L forms follow the SMILES beside them. *: point of attachment. Phe(4-CH2NH2) = NCc1ccc(C[C@H](N)C(=O)O)cc1; Phe(4-NH2) = Nc1ccc(C[C@H](N)C(=O)O)cc1; AEF = NCCOc1ccc(C[C@H](N)C(=O)O)cc1; Lys(Me2) = CN(C)CCCC[C@H](N)C(=O)O; Hydrocinnamoyl = O=C(CCc1ccccc1)*; Aad = N[C@@H](CCCC(=O)O)C(=O)O; Orn = NCCC[C@H](N)C(=O)O; PhAc = O=C(Cc1ccccc1)*

Experiments:
[1] = system: Zika virus; experiment: (§1) Inhibition of 6-His tagged-G4SG4 fused ZIKV NS2B (49 to 95 residues) R95A mutant-NS3 (1 to 170 residue) R29G mutant expressed in Escherichia coli BL21 (DE3) using Bz-Nle-K-RR-AMC substrate at 100 uM preincubated for 10 mins followed by substrate addition and measured after 30 mins by fluorescence assay relative to control; settings: time 40.0 min
[2] = system: Zika virus; experiment: as §1, with “50” for “100”; settings: time 40.0 min
[3] = system: Zika virus; experiment: as §1, with “(DE3) assessed as covalent adduct formation” for “(DE3)”, “substrate” for “substrate at 100 uM”, “LC-HRMS analysis” for “fluorescence assay relative to control”; settings: time 40.0 min
[4] = system: Zika virus; experiment: Antiviral activity against ZIKV infected in African Green monkey Vero cells assessed as reduction in viral replication; assay type: functional, organism-based
[5] = Stability of compound assessed 6-His tagged-G4SG4 fused ZIKV NS2B (49 to 95 residues) R95A mutant-NS3 (1 to 170 residue) R29G mutant expressed in Escherichia coli BL21 (DE3) based degradation by LC-HRMS analysis; assay type: ADME; settings: zika virus
[6] = Binding affinity to 6-His tagged-G4SG4 fused ZIKV NS2B (49 to 95 residues) R95A mutant-NS3 (1 to 170 residue) R29G mutant expressed in Escherichia coli BL21 (DE3) by surface plasmon resonance assay; parameters: species or system Zika virus
[7] = (§2) Inhibition of 6-His tagged-G4SG4 fused ZIKV NS2B (49 to 95 residues) R95A mutant-NS3 (1 to 170 residue) R29G mutant expressed in Escherichia coli BL21 (DE3) using Bz-Nle-K-RR-AMC substrate preincubated for 10 mins followed by substrate addition and measured after 30 mins by fluorescence assay; parameters: species or system Zika virus
[8] = system: Zika virus; experiment: as §2; settings: time 40.0 min
[9] = biological target: Genome polyprotein (dengue virus type 2, UniProt P29990); experiment: Inhibition of 6-His tagged-G4SG4 fused DENV2 NS2B (1394 to 1440 residues) -NS3 (1476 to 1660 residue) expressed in Escherichia coli BL21 (DE3) using Bz-Nle-K-RR-AMC substrate preincubated for 10 mins followed by substrate addition and measured after 30 mins by fluorescence assay
[10] = Inhibition of 6-His tagged-G4SG4 fused WNV NS2B (1423 to 1470 residues) -NS3 (1506 to 1689 residue) using pERTKR-AMC substrate preincubated for 10 mins followed by substrate addition and measured after 30 mins by fluorescence assay; parameters: species or system West Nile virus
[11] = biological target: Trypsin (Homo sapiens, UniProt P07477+P07478+P35030); experiment: Inhibition of human trypsin; assay type: protein assay

Genome polyprotein, sequence (P29990 1346-1475 limits assumed): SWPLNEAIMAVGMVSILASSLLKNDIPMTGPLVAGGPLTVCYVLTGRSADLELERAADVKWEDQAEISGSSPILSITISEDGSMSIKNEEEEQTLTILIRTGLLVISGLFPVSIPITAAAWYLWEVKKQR
Genome polyprotein, sequence (P29990 1476-2093 limits assumed): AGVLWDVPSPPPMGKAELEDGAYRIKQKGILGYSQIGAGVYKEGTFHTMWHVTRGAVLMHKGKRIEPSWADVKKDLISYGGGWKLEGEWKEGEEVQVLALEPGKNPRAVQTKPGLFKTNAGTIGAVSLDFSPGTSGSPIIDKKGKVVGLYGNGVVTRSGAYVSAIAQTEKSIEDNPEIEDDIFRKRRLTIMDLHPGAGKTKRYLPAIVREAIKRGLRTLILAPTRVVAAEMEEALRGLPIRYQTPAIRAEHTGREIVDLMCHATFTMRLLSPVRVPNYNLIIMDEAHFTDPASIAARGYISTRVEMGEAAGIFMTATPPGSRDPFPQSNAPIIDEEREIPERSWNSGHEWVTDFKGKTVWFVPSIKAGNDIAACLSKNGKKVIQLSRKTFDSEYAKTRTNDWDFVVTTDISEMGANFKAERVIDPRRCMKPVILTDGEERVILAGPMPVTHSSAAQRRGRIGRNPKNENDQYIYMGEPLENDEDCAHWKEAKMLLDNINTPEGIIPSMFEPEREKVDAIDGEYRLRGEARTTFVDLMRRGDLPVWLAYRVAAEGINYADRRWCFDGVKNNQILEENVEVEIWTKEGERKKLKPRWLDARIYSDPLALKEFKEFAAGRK

| SMILES | IC50 [7] [µM] | also measured |
| --- | --- | --- |
| N=C(N)NCCC[C@H](NC(=O)[C@H](Cc1ccc(CN)cc1)NC(=O)[C@H](CCCCN)NC(=O)Cc1ccccc1)C(N)=O (PhAc-Lys-[Phe(4-CH2NH2)]-Arg-NH2) | – | inhibition [1]: 66% |
| CC(=O)N[C@H](C(=O)NCC(=O)N[C@@H](CCCCN)C(=O)N[C@@H](CCCNC(=N)N)C(N)=O)[C@@H](C)O (Ac-TGKR-NH2) | – | inhibition [1]: 40% |
| N=C(N)NCCC[C@H](NC(=O)[C@H](CCCCN)NC(=O)CNC(=O)Cc1ccccc1)C(N)=O (PhAc-Gly-Lys-Arg-NH2) | – | inhibition [1]: 40% |
| CC(=O)N[C@H](C(=O)NCC(=O)N[C@@H](CCCCN)C(=O)N[C@@H](CCCNC(=N)N)C(=O)O)[C@@H](C)O (Ac-TGKR-OH) | – | inhibition [1]: 40% |
| N=C(N)NCCC[C@H](NC(=O)[C@H](CCCCN)NC(=O)[C@H](CCCC(N)=O)NC(=O)Cc1ccccc1)C(N)=O (PhAc-[Aad](NH2)-Lys-Arg-NH2) | – | inhibition [2]: 40% |
| N=C(N)NCCC[C@H](NC(=O)[C@H](CCCCN)NC(=O)CNC(=O)Cc1ccccc1)C(=O)O (PhAc-Gly-Lys-Arg-OH) | – | inhibition [1]: 40% |
| CC(=O)N[C@@H](CCCCN)C(=O)N[C@@H](CCCCN)C(=O)N[C@H](C(=O)NCc1ccc(OCc2ccc(C(F)(F)F)cc2)cc1)c1ccccc1 | 0.041 | inhibition [3]: Active; EC50 [4]: 11.2 µM; Stability [5]: Stable; Kd [6]: 0.023 µM; Ki [7]: 0.014 µM |
| N=C(N)NCCC[C@H](NC(=O)[C@H](CCCCN)NC(=O)[C@H](CCCCN)NC(=O)Cc1ccccc1)C(N)=O (PhAc-Lys-Lys-Arg-NH2) | 3 | Ki [7]: 2.4 µM; IC10 [8]: 0.3 µM; IC80 [8]: 10 µM |
| NCCCC[C@H](NC(=O)Cc1ccncc1)C(=O)N[C@@H](CCCCN)C(=O)N[C@H](C(=O)NCc1ccccc1)c1ccc(OCc2ccc(C(F)(F)F)cc2)cc1 | 0.069 | – |
| N#Cc1ccc(COc2ccc([C@H](NC(=O)[C@H](CCCCN)NC(=O)[C@H](CCCNC(=N)N)NC(=O)c3cccs3)C(N)=O)cc2)cc1 | 27.3 | – |
| NCCCC[C@H](NC(=O)Cc1ccccc1)C(=O)N[C@@H](CCCCN)C(=O)N[C@H](C(=O)NCc1cccc(OCc2ccc(C(F)(F)F)cc2)c1)c1ccccc1 | 0.24 | – |
| NCCCC[C@H](NC(=O)Cc1ccccc1)C(=O)N[C@@H](CCCCN)C(=O)N[C@H](C(=O)NCC1CCNCC1)c1ccc(OCc2ccc(C(F)(F)F)cc2)cc1 | 0.35 | – |
| N=C(N)NCCC[C@H](NC(=O)c1cccs1)C(=O)N[C@@H](CCCCN)C(=O)N[C@H](C(N)=O)c1ccc(OCc2ccncc2)cc1 | 12.1 | – |
| N=C(N)NCCC[C@H](NC(=O)c1cccs1)C(=O)N[C@@H](CCCCN)C(=O)N[C@H](C(N)=O)c1ccc(OCc2ccccc2)cc1 | 7.6 | – |
| N=C(N)NCCC[C@H](NC(=O)[C@H](CCCCN)NC(=O)[C@H](Cc1ccccc1)NC(=O)Cc1ccccc1)C(N)=O (PhAc-Phe-Lys-Arg-NH2) | 35 | – |
| NCCCCC(NC(=O)Cc1ccccc1)C(=O)N[C@@H](CCCCN)C(=O)NC(C(=O)NCc1ccccc1)c1ccc(OCc2ccc(C(F)(F)F)cc2)cc1 (single isomer, unassigned) | 1.12 | – |
| N=C(N)NCCC[C@H](NC(=O)[C@H](CCCCN)NC(=O)[C@H](Cc1ccc(CN)cc1)NC(=O)Cc1ccccc1)C(N)=O (PhAc-[Phe(4-CH2NH2)]-Lys-Arg-NH2) | 8.57 | – |
| N=C(N)NCCC[C@H](NC(=O)c1cccs1)C(=O)N[C@@H](CCCCN)C(=O)N[C@H](C(N)=O)c1ccc(OCCc2ccccc2)cc1 | 9.4 | – |
| NCCCC[C@H](NC(=O)Cc1ccccc1)C(=O)N[C@@H](CCCCN)C(=O)N[C@H](C(=O)NC1Cc2ccccc2C1)c1ccc(OCc2ccc(C(F)(F)F)cc2)cc1 | 2 | – |
| N=C(N)NCCC[C@H](NC(=O)[C@H](Cc1ccc(N)cc1)NC(=O)[C@H](CCCCN)NC(=O)Cc1ccccc1)C(N)=O (PhAc-Lys-[Phe(4-NH2)]-Arg-NH2) | > 100 | – |
| N=C(N)NCCC[C@H](NC(=O)[C@H](CCCCN)NC(=O)[C@H](Cc1ccc(OCCN)cc1)NC(=O)Cc1ccccc1)C(N)=O (PhAc-[AEF]-Lys-Arg-NH2) | 30.7 | – |
| NCCCC[C@H](NC(=O)Cc1ccccc1)C(=O)N[C@@H](CCCCN)C(=O)N[C@H](C(=O)NCC1CCCCC1)c1ccccc1 | 0.69 | – |
| CN(Cc1ccccc1)C(=O)[C@H](CCCNC(=N)N)NC(=O)[C@H](CCCCN)NC(=O)[C@H](CCCCN)NC(=O)Cc1ccccc1 | 70 | – |

| SMILES | IC50 [7] [µM] | also measured |
| --- | --- | --- |
| CN(C)Cc1ccc(CNC(=O)[C@H](CCCNC(=N)N)NC(=O)[C@H](CCCCN)NC(=O)[C@H](CCCCN)NC(=O)Cc2ccccc2)cc1 | 2.8 | – |
| N=C(N)CCCC[C@H](NC(=O)[C@H](CCCCN)NC(=O)[C@H](Cc1ccc(C(N)=O)cc1)NC(=O)Cc1ccccc1)C(N)=O | 42.3 | – |
| N=C(N)NCCC[C@H](NC(=O)[C@H](CCCCN)NC(=O)[C@H](CCCCN)NC(=O)CCc1ccccc1)C(N)=O (Hydrocinnamoyl-Lys-Lys-Arg-NH2) | 9.35 | – |
| N=C(N)NCCC[C@H](NC(=O)c1cccs1)C(=O)N[C@@H](CCCCN)C(=O)NCc1ccc(OCc2ccc(C(F)(F)F)cc2)cc1 | 8.2 | – |
| CC(=O)N[C@@H](CCCCN)C(=O)N[C@@H](CCCCN)C(=O)N[C@H](C(=O)NCc1ccccc1)c1ccc(OCc2ccc(C(F)(F)F)cc2)cc1 | 0.028 | IC50 [9]: 0.2 µM; IC50 [10]: 0.8 µM; inhibition [3]: Active; EC50 [4]: 8.5 µM; Stability [5]: Stable; Kd [6]: 0.011 µM; IC50 [11]: 2.3 µM; Ki [7]: 0.007 µM |
| CN(C)CCCC[C@H](NC(=O)[C@H](CCCCN)NC(=O)Cc1ccccc1)C(=O)N[C@@H](CCCNC(=N)N)C(N)=O (PhAc-Lys-[Lys(Me2)]-Arg-NH2) | 25.1 | – |
| CN(Cc1ccccc1)C(=O)N[C@@H](CCCCN)C(=O)N[C@@H](CCCCN)C(=O)N[C@@H](CCCNC(=N)N)C(N)=O | 7.4 | – |
| N=C(N)NCC[C@H](NC(=O)[C@H](CCCCN)NC(=O)[C@H](CCCCN)NC(=O)Cc1ccc(Cl)c(Cl)c1)C(=O)NCC1CCCCC1 | 1.7 | – |
| NCCCC[C@H](NC(=O)Cc1ccccc1)C(=O)N[C@@H](CCCCN)C(=O)N[C@H](C(=O)NCc1ccc(O)cc1)c1ccccc1 | 0.37 | – |
| N=C(N)NCCC[C@H](NC(=O)c1cccs1)C(=O)N[C@@H](CCCCN)C(=O)N[C@H](C(=O)NCc1ccccc1)c1ccc(OCc2ccc(C(F)(F)F)cc2)cc1 | 0.31 | – |
| C[C@H](NC(=O)[C@H](CCCNC(=N)N)NC(=O)[C@H](CCCCN)NC(=O)[C@H](CCCCN)NC(=O)Cc1ccccc1)c1ccccc1 | – | inhibition [2]: 50% |
| COc1ccc([C@H](NC(=O)[C@H](CCCCN)NC(=O)[C@H](CCCNC(=N)N)NC(=O)c2cccs2)C(N)=O)cc1 | 44.3 | – |
| NCCCC[C@H](NC(=O)CC1CCCCC1)C(=O)N[C@@H](CCCCN)C(=O)N[C@H](C(=O)NCc1ccccc1)c1ccc(OCc2ccc(C(F)(F)F)cc2)cc1 | 0.15 | – |
| N=C(N)NCCC[C@H](NC(=O)[C@H](CCCCN)NC(=O)[C@H](CCCCN)NC(=O)Cc1ccncc1)C(N)=O | 5.2 | – |
| N=C(N)NCCC[C@H](NC(=O)c1cccs1)C(=O)N[C@@H](CCCCN)C(=O)N[C@H](C(N)=O)c1ccc(OC2CCc3ccccc32)cc1 (mixture of isomers) | 6.4 | – |
| COc1ccc(CC(=O)N[C@@H](CCCCN)C(=O)N[C@@H](CCCCN)C(=O)N[C@H](C(=O)NCc2ccccc2)c2ccc(OCc3ccc(C(F)(F)F)cc3)cc2)cc1 | 0.27 | – |
| N=C(N)NCCC[C@H](NC(=O)[C@H](CCCN)NC(=O)[C@H](CCCCN)NC(=O)Cc1ccccc1)C(N)=O (PhAc-Lys-[Orn]-Arg-NH2) | 3.9 | – |
| NCCCC[C@H](NC(=O)Cc1ccccc1)C(=O)N[C@@H](CCCCN)C(=O)N[C@@H](C(N)=O)c1ccccc1 | 15 | – |
| CC(=O)N[C@@H](CCCCN)C(=O)N[C@@H](CCCCN)C(=O)N[C@@H](CCCNC(=N)N)C(N)=O (Ac-Lys-Lys-Arg-NH2) | 8.4 | – |
| N=C(N)NCCC[C@H](NC(=O)[C@H](CCCCN)NC(=O)[C@H](CCCCN)NC(=O)Cc1ccc(Cl)c(Cl)c1)C(N)=O | 1.23 | – |
| NCCCC[C@H](NC(=O)Cc1ccccc1)C(=O)N[C@@H](CCCCN)C(=O)N[C@H](C(N)=O)c1ccccc1 | 7 | – |
| NCCCC[C@H](NC(=O)Cc1ccccc1)C(=O)N[C@@H](CCCCN)C(=O)N[C@H](C(=O)NCc1ccc(Cl)cc1)c1ccc(OCc2ccc(C(F)(F)F)cc2)cc1 | 0.16 | – |
